The target of one data set is T1, ABCG2 (BCRP) (Homo sapiens, UniProt Q9UNQ0).
T1 construct: expressed in transfected cells; host or cells: MDCK-II (canine kidney)
The data set can be described thus: Hoechst 33342 accumulation assay in MDCK-II-BCRP cells. Format: cell-based. The settings on record: MDCK cells overexpressing BCRP, steady-state fluorescence.

The target in data set [1] is T2, BCRP (Homo sapiens, UniProt Q9UNQ0).
T2 sequence (Q9UNQ0 1-655): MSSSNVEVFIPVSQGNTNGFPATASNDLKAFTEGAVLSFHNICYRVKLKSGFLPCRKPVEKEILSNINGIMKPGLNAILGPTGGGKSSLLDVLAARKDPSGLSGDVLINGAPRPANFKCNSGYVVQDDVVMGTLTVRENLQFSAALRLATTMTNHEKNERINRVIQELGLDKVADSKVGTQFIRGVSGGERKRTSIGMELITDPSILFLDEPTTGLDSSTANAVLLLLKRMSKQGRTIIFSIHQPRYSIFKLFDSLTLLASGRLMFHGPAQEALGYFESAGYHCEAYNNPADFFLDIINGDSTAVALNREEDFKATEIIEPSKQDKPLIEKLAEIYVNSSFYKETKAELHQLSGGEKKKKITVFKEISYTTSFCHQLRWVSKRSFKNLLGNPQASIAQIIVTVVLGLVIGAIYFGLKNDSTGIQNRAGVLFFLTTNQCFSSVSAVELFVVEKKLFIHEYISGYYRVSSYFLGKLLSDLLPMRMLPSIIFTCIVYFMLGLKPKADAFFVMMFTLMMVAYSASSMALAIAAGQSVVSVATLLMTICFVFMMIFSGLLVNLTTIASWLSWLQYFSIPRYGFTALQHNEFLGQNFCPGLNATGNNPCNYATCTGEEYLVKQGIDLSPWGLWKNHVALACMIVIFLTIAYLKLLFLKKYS
The data set can be described thus: Cellular dye efflux assay (Hoechst 33342) in HT29SN-38-RES cells. Format: cell-based. Set-up: endogenous in cells; host or cells: HT29 SN-38-RES (drug-selected HT29).
Description: HT29 cells were seeded either into a 96-well Nunclon plate (Thermo Fisher Scientific, Roskilde, Denmark) at a density of 6000 cells/well (for Celigo Imaging Cytometry) or into a Nunc 6-well plate at a density of 150,000 cells/well (for fluorescence microscopy). […] Then, the cells were washed with ice-cold PBS to remove excess Hoechst dye. Drugs were added again and the cells were incubated for 1h at 37 °C. The plates were analyzed with either fluorescence microscopy (6-well plates) or imaging cytometry (96-well plates). For the Celigo Imaging Cytometry (Lawrence, MA, USA), the application “Target 1 + 2 (merge)” was used, and the mean fluorescence intensities were measured and data presented as percentage of parental control.

The next data set has as its target CYP2C8 (Homo sapiens, UniProt P10632). The data set can be described thus: biochemical.
In another data set the target is CYP2C9 (Homo sapiens, UniProt P11712). The data set can be described thus: CYP inhibition, CYP2C9. Format: in vitro ADME. The settings on record: Human liver microsomes, diclofenac substrate. For orientation: Liver microsomes are a subcellular fraction often used to study metabolism.
The target in data set [2] is T2, BCRP. The data set is described as follows: Fluorometric transporter inhibition, BCRP-CHO. Format: in vitro ADME. Conditions: Hoechst 33342 substrate. On the procedure: Cells were seeded in a 96-well plate (20,000 cells/well) and used on days 2 or 3 post-seeding. […] Subsequently, substrate was added to the plate followed by 20 min incubation at 37 °C. The plate was then washed with cold assay buffer followed by fluorescence reading on a plate reader. The tested transporters, cell lines, substrates, and reference inhibitors are shown in the Supplementary Materials (Tables S1 and S2).
110 Table S1. […]
120 transporters (P-gp and BCRP), increased fluorescence signal represents inhibition of the transporter activity.
The IC50 values are shown for the analysed transporters with […]

Data set [3] concerns CYP3A. The data set is described as follows: CYP induction in human hepatocytes, CYP3A enzyme activity. Format: in vitro ADME. The procedure: The following procedure was carried out to test whether SCO-201 induces CYP1A, CYP2B6, and CYP3A activities in human hepatocytes. The procedure was designed in accordance with the FDA Guidance for Industry on Drug Interaction Studies (2006). Male and female human hepatocytes were thawed and plated into collagen-coated 96-well plates in serum-containing medium (plating medium) at a density of 0.7 × 10^6 viable cells/mL. The hepatocytes were cultured in a humidified incubator at 37 °C and 5% CO2. At 4 h post plating, human hepatocytes were washed once with fresh plating medium, followed by overnight incubation. At 24 h after plating, the plating medium was removed, and the hepatocytes were overlaid with extracellular matrix (ECM) (Sigma) or Matrigel (BD) in the serum-free medium (incubation medium), and then incubated for another 24 h. Incubation medium with 0.1% DMSO was used as the negative control. After the 2-day recovery period, the hepatocytes were treated with SCO-201 or a known inducer (Table S3) in the incubation medium on day 3 and day 4. The known inducer was tested as the positive control. On day 5, the medium was removed, and the cells were incubated with the respective CYP substrate in Krebs–Henseleit buffer (pH 7.4) containing 3 mM salicylamide for 30 min. The reaction was terminated by transferring the incubation mixture to an equal volume of acetonitrile/methanol mixture (1/1, v/v). Samples were mixed and centrifuged. Supernatants are used for HPLC-MS/MS analysis of the corresponding metabolite. Peak areas corresponding to the metabolite were recorded. The assay was rendered valid if enzyme activity with the positive control was at least twofold greater than negative control.
Cells 2020, 9, x FOR PEER REVIEW 9 of 9
Substrate (conc.) Metabolite Assay
Ethoxyresorufin (2 µM) Resorufin CYP1A
Bupropion (200 µM) Hydrozyl-bupropion CYP2B6
Midazolam (10 µM) 1-hydroxymidazolam CYP3A
139 Table S3: In vitro DMPK analysis: CYP induction.
140 were applied as inducers of the investigated CYPs.
144 References for supplementary materials
146 1. […]

In another data set the test system is CYP1A. The data set can be described thus: CYP induction in human hepatocytes, CYP1A enzyme activity. Format: in vitro ADME.
In another data set the target is T3, ABCG2 (Homo sapiens, UniProt Q9UNQ0).
T3 construct: expressed in transfected cells; host or cells: MDCK-II (canine kidney)
The data set can be described thus: Pheophorbide A accumulation assay in MDCK cells. Format: cell-based. The settings on record: flow cytometry.

In a further data set the test system is CYP1A2. The data set is described as follows: CYP induction in human hepatocytes, CYP1A2 mRNA. Format: in vitro ADME. Conditions: plated human hepatocytes.
For data set [4], the target named is CYP3A (Homo sapiens, UniProt P08684). The data set is described as follows: in vitro. Conditions: both, pooled human liver microsomes, pH 7.4, probe testosterone.
The subject of data set [5] is CYP2B6. The data set can be described thus: CYP induction in human hepatocytes, CYP2B6 mRNA. Format: in vitro ADME. Conditions: plated human hepatocytes.
Details of data set [6]: method as in PMID 26260222. The settings on record: mice; cited from earlier work.
In data set [7] the test system is CYP2B6. The data set is described as follows: CYP induction in human hepatocytes, CYP2B6 enzyme activity. Format: in vitro ADME.
Where [8] appears, read: Donor 1, read-out: Mean Fold Induction of mRNA at 1× 10^−4 M.
Setting [9] is: Donor 2, read-out: Mean Fold Induction of mRNA at 1× 10^−4 M.
The mark [10] stands for this setting: Donor 3, read-out: Mean Fold Induction of mRNA at 1× 10^−4 M.

Read-outs that look alike come from different tables or passages of the source.

CYP3A (Homo sapiens, UniProt P08684), sequence (P08684 2-503): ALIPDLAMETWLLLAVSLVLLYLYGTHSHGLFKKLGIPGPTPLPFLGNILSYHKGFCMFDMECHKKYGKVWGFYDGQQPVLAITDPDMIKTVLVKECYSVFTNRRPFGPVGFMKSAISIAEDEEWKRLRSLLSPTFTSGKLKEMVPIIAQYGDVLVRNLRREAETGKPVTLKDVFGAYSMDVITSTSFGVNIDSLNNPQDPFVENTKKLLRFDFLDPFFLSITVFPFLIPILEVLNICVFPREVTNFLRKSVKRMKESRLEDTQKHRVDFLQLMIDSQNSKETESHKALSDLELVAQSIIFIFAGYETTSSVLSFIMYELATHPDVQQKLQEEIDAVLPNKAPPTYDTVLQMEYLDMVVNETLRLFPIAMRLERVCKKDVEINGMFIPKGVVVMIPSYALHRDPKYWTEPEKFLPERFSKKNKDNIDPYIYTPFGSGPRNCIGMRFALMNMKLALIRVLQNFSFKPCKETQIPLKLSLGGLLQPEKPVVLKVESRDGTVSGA
CYP2C8, sequence (P10632 whole entry): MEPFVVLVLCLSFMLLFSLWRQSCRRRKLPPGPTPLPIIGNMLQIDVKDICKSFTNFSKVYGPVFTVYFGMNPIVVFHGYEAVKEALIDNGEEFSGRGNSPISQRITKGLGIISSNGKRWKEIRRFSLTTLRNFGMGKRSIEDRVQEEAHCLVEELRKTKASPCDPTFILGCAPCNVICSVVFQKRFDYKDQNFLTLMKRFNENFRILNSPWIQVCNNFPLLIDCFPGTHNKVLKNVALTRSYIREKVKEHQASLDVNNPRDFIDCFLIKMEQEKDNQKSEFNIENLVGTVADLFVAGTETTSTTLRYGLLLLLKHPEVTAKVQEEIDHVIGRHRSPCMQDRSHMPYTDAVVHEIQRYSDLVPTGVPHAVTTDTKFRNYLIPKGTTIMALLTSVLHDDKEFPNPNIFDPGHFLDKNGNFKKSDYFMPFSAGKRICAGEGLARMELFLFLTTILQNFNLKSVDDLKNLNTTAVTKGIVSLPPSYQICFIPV
CYP2C9, sequence (P11712 whole entry): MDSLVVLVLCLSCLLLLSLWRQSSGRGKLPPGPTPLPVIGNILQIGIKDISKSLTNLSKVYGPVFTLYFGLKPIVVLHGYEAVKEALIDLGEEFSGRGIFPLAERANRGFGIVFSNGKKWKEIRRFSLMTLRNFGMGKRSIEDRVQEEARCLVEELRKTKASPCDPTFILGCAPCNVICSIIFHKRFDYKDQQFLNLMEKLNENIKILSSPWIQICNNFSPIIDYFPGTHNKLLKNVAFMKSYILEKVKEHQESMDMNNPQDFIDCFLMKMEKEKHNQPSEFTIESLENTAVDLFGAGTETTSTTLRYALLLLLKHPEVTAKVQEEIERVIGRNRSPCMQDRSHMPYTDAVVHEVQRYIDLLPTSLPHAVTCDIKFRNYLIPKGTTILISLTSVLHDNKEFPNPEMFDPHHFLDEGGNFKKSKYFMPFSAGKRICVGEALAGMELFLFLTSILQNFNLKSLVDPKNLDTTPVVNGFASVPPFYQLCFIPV
Description for ABCG2 (BCRP): Dose–response curves were fitted by nonlinear regression using the four-parameter or three-parameter logistic equation, whichever was statistically preferred (GraphPad Prism, version 6.0, San Diego, CA, USA).
46 72 hours with the indicated concentrations of drugs.
49 example is shown. Error bars indicate standard deviations.
57 was used as a comparator.
58 tested and fluorescence values in the steady state measured for each concentration. The IC50-values
A representative experiment is depicted.

Consider `Nc1nc(-c2ccccc2)nc2[nH]nc(Nc3ccc(C(F)(F)F)cc3)c12` [SCO-201], for which the IC50 (as a rule, the concentration at which inhibition is half-maximal) against ABCG2 (BCRP) was 175 nM; on BCRP [1] (imaging cytometry, read-out: IC50, accumulation of Hoechst dye) it was 450 nM; against CYP2C8, above 100000 nM; on CYP2C9 it was above 100000 nM; at BCRP [2], 1700 nM; against ABCG2 it was 145 nM. Moreover, at BCRP [1] (fluorescence microscopy and imaging cytometry), the “Hoechst accumulation in resistant cells” value was “accumulated to the level of the parental control cells”. In addition, the “Mean Fold Enzyme Activity Induction at 1 × 10^−4 M” value was found to be 1.3 with CYP3A [3] (Donor 1); 2.0 with CYP3A [3] (Donor 2); 0.4 with CYP3A [3] (Donor 3); 1 in the data set with CYP1A (Donor 1); 0.7 in the data set on CYP1A (Donor 2); 0.7 in the data set with CYP1A (Donor 3). The “Mean Fold Enzyme Activity Induction at 1 × 10^−4 M” value in the data set with CYP2B6 [7] (Donor 1) stood at 0.8; with CYP2B6 [7] (Donor 2), 0.9; in the data set with CYP2B6 [7] (Donor 3), 0.6. Moreover, the fold induction at 2 days came out at 0.24 with CYP1A2 (setting [8]); 0.39 in the data set on CYP1A2 (setting [9]); 0.26 with CYP1A2 (setting [10]); 0.17 in the data set with CYP2B6 [5] (setting [8]); 0.52 in the data set on CYP2B6 [5] (setting [9]); 0.45 with CYP2B6 [5] (setting [10]). The compound also had an IC50 at 10 min at CYP3A [4] above 100000 nM. Also, in [6], the oral activity entry is “orally active”.

The record behind these values is publication PMC7140522, “The Pyrazolo[3,4-d]pyrimidine Derivative, SCO-201, Reverses Multidrug Resistance Mediated by ABCG2/BCRP” (Cells, 2020).
